# Columns and labels:
# human mARC1 = target: T1, human mARC1 (Homo sapiens, UniProt Q5VT66); assay: mARC1 three-component system (mARC1, cytochrome b5, cytochrome b5 reductase): conversion of benzamidoxime to benzamidine, NADH consumption at 340 nm / HPLC of benzamidine; format: biochemical; conditions: recombinant mARC1 + CYB5B + CYB5R3, NADH, substrate BAO, 37° C., MES pH 6.0; FIGS. 1-4 (N-hydroxyurethane and urethane 1 mM in FIGS. 1, 3)
# T1 construct: made in house; host or cells: Escherichia coli
# T1 sequence (Q5VT66 53-337 limits assumed): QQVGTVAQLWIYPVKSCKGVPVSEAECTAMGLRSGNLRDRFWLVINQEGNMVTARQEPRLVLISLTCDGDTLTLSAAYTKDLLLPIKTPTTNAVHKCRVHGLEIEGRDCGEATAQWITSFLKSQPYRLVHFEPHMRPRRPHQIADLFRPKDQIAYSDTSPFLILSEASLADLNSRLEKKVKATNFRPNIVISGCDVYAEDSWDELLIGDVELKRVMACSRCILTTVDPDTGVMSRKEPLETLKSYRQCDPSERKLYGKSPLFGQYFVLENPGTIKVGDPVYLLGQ
# Experimental: (§1) The compounds N-hydroxyurethane (R1═H, R2═CH2CH3) and ethyl-N-(3-chlorophenyl) -hydroxycarbamate (R1═3-chlorophenyl, R2═CH2CH3) are used as examples of active compounds. FIGS. 1, 3 and 4 show the absorbance at 340 nm in dependence on the time for an incubation with the three-component system mARC1 and mARC2, respectively, cytochrome b5 and cytochrome b5 reductase, which catalyze the conversion of the model substrate benzamidoxime (BAO) to benzamidine in the presence of the cosubstrate NADH (5). The decrease in the concentration of NADH due to its absorption maximum at 340 nm is thereby measured. From the measurement results, which are shown in the bar graph of FIG. 4, the inhibition of the conversion of benzamidoxime to benzamidine is evident by the lower consumption of NADH. NADH represents the required cosubstrate for the conversion. […] The down-regulation is only observed for mARC1 and not for mARC2 (FIG. 2).
# (§2) 105 μl MES buffer (20 mM, pH 6.0) was placed in a micro-UV cuvette. […] This batch was then set as a blank sample and the absorbance was zeroed. […] Herein, the absorbance spectrum between 300 nm and 400 nm was recorded every 30 s for a period of 10 min (spectrophotometer Cary® 50 Bio with Walter peltier system PCB 150, Agilent). […] The conversion rates of BAO with and without inhibitor were compared based on the absorbance change at 340 nm to determine the degree of inhibition. […]
# human mARC2 = target: T2, human mARC2 (Homo sapiens, UniProt Q969Z3); assay: mARC2 three-component system (mARC2, cytochrome b5, cytochrome b5 reductase): conversion of benzamidoxime to benzamidine, NADH consumption at 340 nm / HPLC of benzamidine; format: biochemical; conditions: recombinant mARC2 + CYB5B + CYB5R3, NADH, substrate BAO; FIG. 2
# T2 construct: made in house; host or cells: Escherichia coli
# T2 sequence (Q969Z3 36-335): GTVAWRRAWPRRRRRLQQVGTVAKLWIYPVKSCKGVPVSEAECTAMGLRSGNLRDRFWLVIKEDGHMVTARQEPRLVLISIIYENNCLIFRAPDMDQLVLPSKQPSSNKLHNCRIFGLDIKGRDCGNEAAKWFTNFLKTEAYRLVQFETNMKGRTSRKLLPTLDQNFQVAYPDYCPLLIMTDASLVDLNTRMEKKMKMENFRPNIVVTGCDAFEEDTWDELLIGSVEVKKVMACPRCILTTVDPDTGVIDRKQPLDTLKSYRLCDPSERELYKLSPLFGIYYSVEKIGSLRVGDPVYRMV
# Experimental: as §1, §2
# [1] = tested on: cytochrome b5 and/or cytochrome b5 reductase; assay: Inhibition of the electron transport partners, concluded from the non-inhibited mARC2 conversion; format: biochemical, human; conditions: concluded from the non-inhibited conversion for mARC2
# Experimental: as §1, §2
inhibition of the conversion of benzamidoxime to benzamidine by mARC1 (human mARC1),down-regulation of the conversion of benzamidoxime to benzamidine by mARC2 (human mARC2),inhibition of cytochrome b5 and/or cytochrome b5 reductase [1],SMILES
inhibition occurs,not for mARC2,are not inhibited,CCOC(=O)NO [N-hydroxyurethane]
inhibition occurs,–,–,CCOC(=O)N(O)c1cccc(Cl)c1 [ethyl-N-(3-chlorophenyl)-hydroxycarbamate]

# From patent US20240207215A1, “MARC1 INHIBITORS FOR TREATMENT OF LIPID METABOLISM DISORDERS” (priority 2020, published 2024)
